The results in this text go back to patent publication US9669005B2, “Use of naringenin in preparing drugs for preventing and/or treatment abdominal aortic aneurysm” (priority 2013, dated 2017).

The subject of one experiment is metalloproteinase NMP-9. Description: Gelatin zymography, ApoE knockout mice after second round of angiotensin II. Type of experiment: in vivo. The following applies: abdominal aortas, naringenin gavage, FIG. 10D. The method, then: […] Blood vessels were cultured for 24 hours using 0.5 ml serum-free medium with high glucose. After the cultured supernatant protein was quantified, mercaptoethanol-free protein sample loading buffer was added, cryopreserved at −80° C. Water was used to prepare gelatin (Sigma-Aldrich, St. Louis, Mo.) into a concentration of 10 mg/ml, which was added to separation gel of protein electrophoresis according to the proportion of 1:10, causing the final concentration of gelatin as 1 mg/ml. Electrophoresis was performed in a voltage of 80V at 4° C. The gel was put into 0.25% Trixon-100 solution, and washing was performed twice in 30 minutes. And then the gelatin was added to incubation solution (50 mM Tris, 0.2M NaCl, 5 mM CaCl2, 0.02% sodium azide), incubated for 24-48 hours at 37° C. Incubated gel was put into Coomassie brilliant blue to stain for 1-2 hours at room temperature, washed for 30 minutes with a solution having 30% methanol and 10% glacial acetic acid, a solution having 20% methanol and 10% glacial acetic acid, and a solution having 10% methanol and 5% glacial acetic acid, respectively, and then analyzed with Odyssey infrared fluorescence scanning system (LI-COR Biosciences, Lincoln, Nebr.). Both NMP-2 and NMP-9 are gelatinases, and can degrade gelatin; the places where gelatin is degraded are white, and other places are still black. […]

The subject of the next experiment is MMP-2 and NMP-9. The experiment is described as follows: Gelatin zymography, CaPO4 model. Type of experiment: in vivo. The following applies: CaPO4 daubed mice; infrarenal abdominal aorta culture supernatant; FIG. 4B. The method, then:
After extravasated blood in fresh removed blood vessels of infrarenal site in abdominal aortas of mice were cleared, and fat and connective tissues were removed, and blood vessels were cut into 1 cm ring, and put into 24-well plate. Blood vessels were cultured for 24 hours using 0.5 ml serum-free medium with high glucose. After the cultured supernatant protein was quantified, mercaptoethanol-free protein sample loading buffer was added, cryopreserved at −80° C. Water was used to prepare gelatin (Sigma-Aldrich, St. Louis, Mo.) into a concentration of 10 mg/ml, which was added to separation gel of protein electrophoresis according to the proportion of 1:10, causing the final concentration of gelatin as 1 mg/ml. Electrophoresis was performed in a voltage of 80V at 4° C. The gel was put into 0.25% Trixon-100 solution, and washing was performed twice in 30 minutes. […] Incubated gel was put into Coomassie brilliant blue to stain for 1-2 hours at room temperature, washed for 30 minutes with a solution having 30% methanol and 10% glacial acetic acid, a solution having 20% methanol and 10% glacial acetic acid, and a solution having 10% methanol and 5% glacial acetic acid, respectively, and then analyzed with Odyssey infrared fluorescence scanning system (LI-COR Biosciences, Lincoln, Nebr.). […]

As for `O=C1C[C@@H](c2ccc(O)cc2)Oc2cc(O)cc(O)c21` [naringenin], the “activity of metalloproteinase NMP-9 (gelatin zymography)” value in the experiment on metalloproteinase NMP-9 is “significantly inhibit”. For the same compound, in the experiment with MMP-2 and NMP-9, the “MMP-2 and NMP-9 (gelatin zymography)” value is “reverse the increase of MMP-2 and NMP-9 caused by CaPO4 daubing”.
